Test results as given in patent US20040121947A1, “Compounds which inhibit beta-secretase activity and methods of use thereof” (Oklahoma Medical Research Foundation, priority 2000, published 2004).
Read-outs that look alike come from different tables or passages of the source.

Molecular target: T1, memapsin 2 (Homo sapiens, UniProt P56817)
T1 construct: pET-11 vector-derived residues 1-15 of promemapsin 2-T1 (N, cleaved yes); made in house; host or cells: E. coli
Assay: Inhibition of memapsin 2 proteolytic activity, fluorogenic substrate FS-2
Format: biochemical
Conditions: for Vi/Vo: ratio of initial cleavage velocities of FS-2 with/without compound, enzyme and inhibitor concentrations equal (e.g., about 80 nM, 100 nM); for Ki: memapsin 2
Procedure: Ki is the inhibition equilibrium constant which indicates the ability of compounds to inhibit the β-secretase activity of memapsin 2 and memapsin 1. […] The K1 value is independent of the substrate, and converted from Ki apparent.
The Vi/Vo values depicted in Table 1 were determined at conditions under which the enzyme and inhibitor concentrations were equal (e.g., about 80 nM, 100 nM).
The relationship of Ki (independent of substrate concentration) to Kiapp is a function of substrate concentration in the assay and the Km for cleavage of the substrate by either memapsin 1 or memapsin 2 by the relationship:
The spontaneously activated memapsin 2 was employed in assays to assess the inhibition of memapsin 2 relative to memapsin 1 by compounds of the invention and in some crystallization studies.
An aliquot of the inhibitor of known concentration in DMSO was diluted into 1.8 ml 0.1 M NaOAc, pH 4.0. DMSO and added to a final concentration of 10% (v/v), and memapsin 2 (final concentration of 80 nM), followed by a 20 minute equilibration at 37° C. Compounds were evaluated for the ability to inhibit memapsin 1 and memapsin 2 at concentrations between about 10 nM and about 10 μm of inhibitor.

[1] = apparent Ki in presence of substrate FS-2, read-out: Ki app
[2] = independent of substrate, converted from Ki apparent, read-out: Ki

T1 sequence (P56817 41-454 limits assumed): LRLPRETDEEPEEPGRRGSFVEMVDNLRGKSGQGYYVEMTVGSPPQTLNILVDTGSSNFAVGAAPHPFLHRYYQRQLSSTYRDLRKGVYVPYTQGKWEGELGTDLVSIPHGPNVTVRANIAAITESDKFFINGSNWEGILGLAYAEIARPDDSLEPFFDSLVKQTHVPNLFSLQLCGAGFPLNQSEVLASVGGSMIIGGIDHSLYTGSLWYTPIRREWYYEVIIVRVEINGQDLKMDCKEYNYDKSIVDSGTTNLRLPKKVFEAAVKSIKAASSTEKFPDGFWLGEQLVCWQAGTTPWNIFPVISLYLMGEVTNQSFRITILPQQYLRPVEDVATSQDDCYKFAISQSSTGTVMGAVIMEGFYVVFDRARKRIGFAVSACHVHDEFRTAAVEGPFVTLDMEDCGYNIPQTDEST

Row | Vi/Vo | Ki [1] [nM] | Ki [2] [nM] | SMILES
1 | 0.72 | – | – | CC(C)C[C@H](NC(=O)[C@H](C)C[C@H](O)[C@H](CC(C)C)NC(=O)[C@H](CS(C)(=O)=O)NC(=O)OCc1ccccn1)C(=O)NCc1ccccc1 [MMI-126]
2 | – | 6840 | 4280 | CSCC[C@H](NC(=O)OCc1ccc(CN(C)C)o1)C(=O)N[C@@H](CC(C)C)[C@@H](O)C[C@@H](C)C(=O)N[C@H](C(=O)NCc1ccccc1)C(C)C [MMI-127]
3 | 0.66 | – | – | CC(C)C[C@H](NC(=O)[C@H](CS(C)(=O)=O)NC(=O)OCc1ccncc1)[C@@H](O)C[C@@H](C)C(=O)N[C@H](C(=O)NCc1ccccc1)C(C)C [MMI-128]
4 | 1.01 | – | – | CC(C)C[C@H](NC(=O)[C@H](CCS(C)(=O)=O)NC(=O)OCc1ccc(CN(C)C)o1)[C@@H](O)C[C@@H](C)C(=O)N[C@H](C(=O)NCc1ccccc1)C(C)C [MMI-129]
5 | – | – | 68600 | CSCC[C@H](NC(=O)[C@@H](NC(=O)OC(C)(C)C)C(C)C)C(=O)N[C@@H](CC(C)C)[C@@H](O)C[C@@H](C)C(=O)N[C@@H](C(C)C)C1CCCCO1 (some centres unmarked) [MMI-130]
6 | – | 92900 | 58100 | CSCC[C@H](NC(=O)[C@@H](NC(=O)OC(C)(C)C)C(C)C)C(=O)N[C@@H](CC(C)C)[C@@H](O)C[C@@H](C)C(=O)N[C@@H](C(C)C)C1CCCCO1 (some centres unmarked) [MMI-131]
7 | 0.09 | 0.52 | 0.33 | CSCC[C@H](NC(=O)[C@H](CC(C)C)NC(=O)OC(C)(C)C)C(=O)N[C@@H](CC(C)C)[C@H](O)C[C@H](C)C(=O)N[C@H](C(=O)NCc1ccccc1)C(C)C [MMI-133]
8 | 0.12 | 10.3 | 6.46 | CC(C)CNC(=O)[C@@H](NC(=O)[C@H](C)C[C@H](O)[C@H](CC(C)C)NC(=O)[C@H](CCS(C)(=O)=O)NC(=O)[C@H](CC(C)C)NC(=O)OC(C)(C)C)C(C)C [MMI-135]
9 | 0.87 | – | – | CC(C)C[C@H](NC(=O)[C@H](CCS(C)(=O)=O)NC(=O)OCc1ccco1)[C@@H](O)C[C@@H](C)C(=O)N[C@H](C(=O)NCc1ccccc1)C(C)C [MMI-136]
10 | 0.85 | – | – | CC(C)C[C@H](NC(=O)[C@H](CCS(C)(=O)=O)NC(=O)OCc1ccoc1)[C@@H](O)C[C@@H](C)C(=O)N[C@H](C(=O)NCc1ccccc1)C(C)C [MMI-137]
11 | – | 38700 | 24200 | CSCC[C@H](NC(=O)[C@@H](NC(=O)OC(C)(C)C)C(C)C)C(=O)N[C@@H](CC(C)C)[C@@H](O)C[C@@H](C)C(=O)N[C@@H](C(C)C)C1CC(Cc2ccccc2)CC(=O)O1 (some centres unmarked) [MMI-140]
12 | – | 30000 | 18800 | CSCC[C@H](NC(=O)[C@@H](NC(=O)OC(C)(C)C)C(C)C)C(=O)N[C@@H](CC(C)C)[C@@H](O)C[C@@H](C)C(=O)N[C@@H](C(C)C)C1CC(Cc2ccccc2)CC(=O)O1 (some centres unmarked) [MMI-141]
13 | 0.92 | – | – | CC(C)C[C@H](NC(=O)[C@H](CS(C)(=O)=O)NC(=O)OCc1cccnc1)[C@@H](O)C[C@@H](C)C(=O)N[C@H](C(=O)NCc1ccccc1)C(C)C [MMI-142]
14 | 1 | – | – | CC(C)C[C@H](NC(=O)[C@H](C)C[C@H](O)[C@H](CC(C)C)NC(=O)[C@H](CS(C)(=O)=O)NC(=O)OCc1cccnc1)C(=O)NCc1ccccc1 [MMI-143]
15 | 1.03 | – | – | CC(C)C[C@H](NC(=O)[C@H](CS(C)(=O)=O)NC(=O)OCc1ccncc1)[C@@H](O)C[C@@H](C)C(=O)N[C@H](C(=O)NCc1ccccc1)C(C)C [MMI-144]
16 | 0.84 | – | – | C=C(C[C@H](O)[C@H](CC(C)C)NC(=O)[C@H](CCSC)NC(=O)[C@@H](NC(=O)OC(C)(C)C)C(C)C)C(=O)N[C@H](C(=O)NCc1ccccc1)C(C)C [MMI-145]
17 | 1.07 | – | – | CSCC[C@H](NC(=O)[C@@H](NC(=O)OC(C)(C)C)C(C)C)C(=O)N[C@@H](CC(C)C)[C@@H](O)C[C@@H](C)C(=O)N[C@@H](C(C)C)C1CC(Cc2ccccc2)CCO1 (some centres unmarked) [MMI-146-A]
18 | 1.04 | – | – | CSCC[C@H](NC(=O)[C@@H](NC(=O)OC(C)(C)C)C(C)C)C(=O)N[C@@H](CC(C)C)[C@@H](O)C[C@@H](C)C(=O)N[C@@H](C(C)C)C1CC(Cc2ccccc2)CCO1 (some centres unmarked) [MMI-146-S]
19 | 1.1 | – | – | CSCC[C@H](NC(=O)[C@@H](NC(=O)OC(C)(C)C)C(C)C)C(=O)N[C@@H](CC(C)C)[C@@H](O)C[C@@H](C)C(=O)N[C@@H](C(C)C)C1CC(Cc2ccccc2)CCO1 (some centres unmarked) [MMI-147]
20 | 0.46 | 25.9 | 16.2 | C=CCNC(=O)C[C@H](NC(=O)[C@@H](NC(=O)OCC=C)C(C)C)C(=O)N[C@@H](CC(C)C)[C@@H](O)C[C@@H](C)C(=O)N[C@H](C(=O)NCc1ccccc1)C(C)C [MMI-148]

Row | Vi/Vo | Ki [1] [nM] | Ki [2] [nM] | SMILES
21 | 0.66 | – | – | CC(C)C[C@H](NC(=O)[C@@H]1CC(=O)NC/C=C\COC(=O)N[C@@H](C(C)C)C(=O)N1)[C@@H](O)C[C@@H](C)C(=O)N[C@H](C(=O)NCc1ccccc1)C(C)C [MMI-149]
22 | 0.8 | – | – | CC(C)C[C@H](NC(=O)[C@@H]1CC(=O)NCCCCOC(=O)N[C@@H](C(C)C)C(=O)N1)[C@@H](O)C[C@@H](C)C(=O)N[C@H](C(=O)NCc1ccccc1)C(C)C [MMI-150]
23 | 0.56 | – | – | C=CCCOC(=O)N[C@H](C(=O)N[C@@H](CC(=O)NCC=C)C(=O)N[C@@H](CC(C)C)[C@@H](O)C[C@@H](C)C(=O)N[C@H](C(=O)NCc1ccccc1)C(C)C)C(C)C [MMI-151]
24 | 0.47 | 20.6 | 12.8 | CC(C)C[C@H](NC(=O)[C@@H]1CC(=O)NC/C=C\CCOC(=O)N[C@@H](C(C)C)C(=O)N1)[C@@H](O)C[C@@H](C)C(=O)N[C@H](C(=O)NCc1ccccc1)C(C)C [MMI-152]
25 | 0.68 | – | – | CC(C)C[C@H](NC(=O)[C@@H]1CC(=O)NCCCCCOC(=O)N[C@@H](C(C)C)C(=O)N1)[C@@H](O)C[C@@H](C)C(=O)N[C@H](C(=O)NCc1ccccc1)C(C)C [MMI-153]
26 | 0.1 | – | – | CSCC[C@H](NC(=O)[C@@H](NC(=O)OC(C)(C)C)C(C)C)C(=O)N[C@@H](CC(C)C)[C@@H](O)C[C@@H](C)C(=O)N[C@@H](C(C)C)C1CCCO1 (some centres unmarked) [MMI-154]
27 | 0.08 | 2.06 | 1.28 | CSCC[C@H](NC(=O)[C@@H](NC(=O)OC(C)(C)C)C(C)C)C(=O)N[C@@H](CO)[C@@H](O)C[C@@H](C)C(=O)N[C@H](C(=O)NCc1ccccc1)C(C)C [MMI-155]
28 | 0.08 | 0.524 | 0.33 | CSCC[C@H](NC(=O)[C@H](CC(C)C)NC(=O)OC(C)(C)C)C(=O)N[C@@H](CC(C)C)[C@@H](O)C[C@@H](C)C(=O)N[C@@H](CC(C)C)C(=O)NC(C)C [MMI-158]
29 | 0.07 | 0.8 | 0.5 | CCCCNC(=O)[C@@H](NC(=O)[C@H](C)C[C@H](O)[C@H](CC(C)C)NC(=O)[C@H](CCSC)NC(=O)[C@H](CC(C)C)NC(=O)OC(C)(C)C)C(C)C [MMI-159]
30 | 0.19 | 4.15 | 2.59 | CCCCNC(=O)[C@H](CC(C)C)NC(=O)[C@H](C)C[C@H](O)[C@H](CC(C)C)NC(=O)[C@H](CCSC)NC(=O)[C@H](CC(C)C)NC(=O)OC(C)(C)C [MMI-160]
31 | 0.06 | 0.68 | 0.43 | CSCC[C@H](NC(=O)[C@H](CC(C)C)NC(=O)OC(C)(C)C)C(=O)N[C@@H](CC(C)C)[C@@H](O)C[C@@H](C)C(=O)N[C@H](C(=O)NCc1ccco1)C(C)C [MMI-161]
32 | 0.98 | – | – | CSCC[C@H](NC(=O)[C@@H](NC(=O)OC(C)(C)C)C(C)C)C(=O)N[C@@H](CC(C)C)[C@@H](O)C[C@@H](C)NC(=O)[C@H](NC(=O)OCc1ccccc1)C(C)C [MMI-162]
33 | 0.57 | – | – | CSCC[C@H](NC(=O)[C@@H](NC(=O)OC(C)(C)C)C(C)C)C(=O)N[C@@H](CC(C)C)[C@@H](O)C[C@@H](C)NC(=O)[C@@H](NC(=O)OCc1ccccc1)C(C)C [MMI-163]
34 | 0.29 | 12.8 | 7.98 | CSCC[C@H](C[C@H](O)[C@H](CC(C)C)NC(=O)[C@H](CCSC)NC(=O)[C@H](CC(C)C)NC(=O)OC(C)(C)C)C(=O)N[C@H](C(=O)NCc1ccccc1)C(C)C [MMI-164]
35 | 0.76 | 108 | 67.4 | CSCC[C@H](NC(=O)OCn1nc(C)cc1C)C(=O)N[C@@H](CC(C)C)[C@@H](O)C[C@@H](C)C(=O)N[C@@H](CC(C)C)C(=O)NCC(C)C [MMI-166]
36 | 0.75 | – | – | CSCC[C@H](NC(=O)[C@@H](NC(=O)OC(C)(C)C)C(C)C)C(=O)N[C@@H](CC(C)C)[C@@H](O)C[C@H](C)NC(=O)[C@@H](NC(=O)OCc1ccccc1)C(C)C [MMI-168]
37 | 1.1 | – | – | CSCC[C@H](NC(=O)[C@@H](NC(=O)OC(C)(C)C)C(C)C)C(=O)N[C@@H](CC(C)C)[C@@H](O)C[C@H](C)NC(=O)[C@H](NC(=O)OCc1ccccc1)C(C)C [MMI-169]
38 | 1.08 | – | – | CSCC[C@H](NC(=O)OCn1nc(C)cc1C)C(=O)N[C@@H](CC1CCCC1)[C@@H](O)C[C@@H](C)C(=O)N[C@@H](CC(C)C)C(=O)NCC(C)C [MMI-170]
39 | 1.05 | 447 | 279 | CCCCNC(=O)[C@@H](NC(=O)[C@H](C)C[C@H](O)[C@H](CC1CCCC1)NC(=O)[C@H](CCSC)NC(=O)OCn1nc(C)cc1C)C(C)C [MMI-172]
40 | 1.16 | – | – | CSCC[C@H](NC(=O)OCCn1nc(C(C)(C)C)cc1C(C)(C)C)C(=O)N[C@@H](CC(C)C)[C@@H](O)C[C@@H](C)C(=O)N[C@@H](CC(C)C)C(=O)NCC(C)C [MMI-177]
